The target in the experiment is human sodium ion channel 1.7 (hNav1.7) (Homo sapiens, UniProt Q15858). As to the kind of experiment: Blocking effect against sodium ion channel Nav1.7, IonFlux16 auto patch clamp in hNav1.7 HEK293 cells. In kind it is cell-based. The note with it: hNav1.7 HEK293 cells; inhibition of peak current after 50 seconds treatment; eight concentrations; read-out: IC50. Background: The patch-clamp technique gives a direct electrical read-out from membranes.
Chain of human sodium ion channel 1.7 (hNav1.7) (Q15858 whole entry): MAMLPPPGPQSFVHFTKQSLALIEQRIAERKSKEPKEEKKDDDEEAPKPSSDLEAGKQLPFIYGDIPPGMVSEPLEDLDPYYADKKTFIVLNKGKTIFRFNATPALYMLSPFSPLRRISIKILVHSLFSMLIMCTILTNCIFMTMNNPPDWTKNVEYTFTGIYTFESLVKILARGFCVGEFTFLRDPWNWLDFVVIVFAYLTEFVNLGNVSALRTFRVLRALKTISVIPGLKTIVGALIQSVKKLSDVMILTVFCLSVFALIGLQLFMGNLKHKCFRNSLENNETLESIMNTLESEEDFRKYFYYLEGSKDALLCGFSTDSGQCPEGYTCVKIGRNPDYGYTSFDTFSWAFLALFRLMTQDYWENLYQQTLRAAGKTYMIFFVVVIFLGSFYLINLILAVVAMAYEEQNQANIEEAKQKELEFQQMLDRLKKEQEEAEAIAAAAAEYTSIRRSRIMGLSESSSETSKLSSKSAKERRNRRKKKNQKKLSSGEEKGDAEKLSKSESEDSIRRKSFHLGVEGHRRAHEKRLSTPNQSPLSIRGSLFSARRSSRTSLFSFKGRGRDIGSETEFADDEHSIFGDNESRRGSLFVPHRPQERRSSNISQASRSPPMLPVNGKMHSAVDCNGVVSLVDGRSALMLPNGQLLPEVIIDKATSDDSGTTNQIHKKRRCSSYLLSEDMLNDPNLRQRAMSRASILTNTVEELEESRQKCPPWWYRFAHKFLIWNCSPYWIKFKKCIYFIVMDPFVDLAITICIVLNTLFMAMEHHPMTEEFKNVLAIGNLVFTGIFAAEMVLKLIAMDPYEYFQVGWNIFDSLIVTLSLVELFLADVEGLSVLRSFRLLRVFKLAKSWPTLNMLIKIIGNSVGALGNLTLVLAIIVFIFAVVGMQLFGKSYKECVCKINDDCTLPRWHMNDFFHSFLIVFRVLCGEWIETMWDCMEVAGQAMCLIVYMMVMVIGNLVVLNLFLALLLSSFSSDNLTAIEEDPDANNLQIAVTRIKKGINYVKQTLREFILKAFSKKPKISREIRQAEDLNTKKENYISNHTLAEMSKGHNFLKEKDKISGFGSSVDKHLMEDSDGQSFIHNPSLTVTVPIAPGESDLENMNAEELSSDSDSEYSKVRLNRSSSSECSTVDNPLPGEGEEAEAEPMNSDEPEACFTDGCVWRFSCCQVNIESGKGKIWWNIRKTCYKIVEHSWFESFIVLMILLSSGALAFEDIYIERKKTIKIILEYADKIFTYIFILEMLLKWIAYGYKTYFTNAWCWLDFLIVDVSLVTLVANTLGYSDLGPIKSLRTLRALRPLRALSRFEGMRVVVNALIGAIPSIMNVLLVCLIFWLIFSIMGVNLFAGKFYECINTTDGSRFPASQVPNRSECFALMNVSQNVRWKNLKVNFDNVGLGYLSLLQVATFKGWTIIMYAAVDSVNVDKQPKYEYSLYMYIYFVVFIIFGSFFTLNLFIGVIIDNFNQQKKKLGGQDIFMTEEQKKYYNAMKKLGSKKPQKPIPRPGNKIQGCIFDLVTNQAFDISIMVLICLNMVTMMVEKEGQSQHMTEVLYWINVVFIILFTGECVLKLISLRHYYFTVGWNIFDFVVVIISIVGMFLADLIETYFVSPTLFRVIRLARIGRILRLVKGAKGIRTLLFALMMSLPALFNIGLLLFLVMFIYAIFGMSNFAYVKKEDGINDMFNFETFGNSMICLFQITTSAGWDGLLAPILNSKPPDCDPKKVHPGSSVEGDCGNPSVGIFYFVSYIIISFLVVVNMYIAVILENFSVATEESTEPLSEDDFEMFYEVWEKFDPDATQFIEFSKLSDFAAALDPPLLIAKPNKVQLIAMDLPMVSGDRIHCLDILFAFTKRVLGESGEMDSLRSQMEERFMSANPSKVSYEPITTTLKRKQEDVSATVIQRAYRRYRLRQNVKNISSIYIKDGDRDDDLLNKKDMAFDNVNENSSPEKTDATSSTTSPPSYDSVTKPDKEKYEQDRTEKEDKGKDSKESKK

The term IC50 denotes the concentration at which inhibition is half-maximal. Consider `Cc1cccc(-c2ccc3c(c2)c(Cl)nn3-c2cc(F)c(C(=O)NS(C)(=O)=O)cc2Cl)c1` [Example 233, 5-chloro-4-(3-chloro-5-(m-tolyl)-1H-indazol-1-yl)-2-fluoro-N-(methylsulfonyl)benzamide], for which the IC50 turned out to be 68 nM.

With `CS(=O)(=O)NC(=O)c1cc(Cl)c(-n2nc(Cl)c3cc(-c4ccccc4F)ccc32)cc1F` [Example 234, 5-chloro-4-(3-chloro-5-(2-fluorophenyl)-1H-indazol-1-yl)-2-fluoro-N-(methylsulfonyl)benzamide], the IC50 is 111 nM.

For `CS(=O)(=O)NC(=O)c1cc(Cl)c(-n2nc(Cl)c3cc(-c4cccc(F)c4)ccc32)cc1F` [Example 235, 5-chloro-4-(3-chloro-5-(3-fluorophenyl)-1H-indazol-1-yl)-2-fluoro-N-(methylsulfonyl)benzamide], the IC50 was found to be 89 nM.

For `CS(=O)(=O)NC(=O)c1cc(Cl)c(-n2nc(Cl)c3cc(-c4ccc(F)cc4)ccc32)cc1F` [Example 236, 5-chloro-4-(3-chloro-5-(4-fluorophenyl)-1H-indazol-1-yl)-2-fluoro-N-(methylsulfonyl)benzamide], the IC50 came to 71 nM.

Consider `CS(=O)(=O)NC(=O)c1cc(Cl)c(-n2nc(Cl)c3cc(-c4ccccc4C#N)ccc32)cc1F` [Example 237, 5-chloro-4-(3-chloro-5-(2-cyanophenyl)-1H-indazol-1-yl)-2-fluoro-N-(methylsulfonyl)benzamide], for which the IC50 was over 10000 nM.

As for `CS(=O)(=O)NC(=O)c1cc(Cl)c(-n2nc(Cl)c3cc(-c4cc(C#N)ccc4F)ccc32)cc1F` [Example 238, 5-chloro-4-(3-chloro-5-(5-cyano-2-fluorophenyl)-1H-indazol-1-yl)-2-fluoro-N-(methylsulfonyl)benzamide], the IC50 worked out at 341 nM.

`CS(=O)(=O)NC(=O)c1cc(Cl)c(-n2nc(Cl)c3cc(-c4ccc(F)c(C#N)c4)ccc32)cc1F` [Example 239, 5-chloro-4-(3-chloro-5-(3-cyano-4-fluorophenyl)-1H-indazol-1-yl)-2-fluoro-N-(methylsulfonyl)benzamide]: the concentration for half-maximal inhibition (IC50) worked out at 283 nM.

On to `CS(=O)(=O)NC(=O)c1cc(Cl)c(-n2nc(Cl)c3cc(-c4ccc(C#N)cc4)ccc32)cc1F` [Example 240, 5-chloro-4-(3-chloro-5-(4-cyanophenyl)-1H-indazol-1-yl)-2-fluoro-N-(methylsulfonyl)benzamide], for which the IC50 was found to be 752 nM.

Consider `CS(=O)(=O)NC(=O)c1cc(Cl)c(-n2nc(Cl)c3cc(-c4cncnc4)ccc32)cc1F` [Example 241, 5-chloro-4-(3-chloro-5-(pyrimidin-5-yl)-1H-indazol-1-yl)-2-fluoro-N-(methylsulfonyl)benzamide], for which the IC50 was over 10000 nM.

Take `CS(=O)(=O)NC(=O)c1cc(Cl)c(-n2nc(Cl)c3cc(-c4cncc(Cl)c4)ccc32)cc1F` [Example 242, 5-chloro-4-(3-chloro-5-(5-chloropyridin-3-yl)-1H-indazol-1-yl)-2-fluoro-N-(methylsulfonyl)benzamide]: the IC50 stood at 809 nM.

Regarding `CS(=O)(=O)NC(=O)c1cc(Cl)c(-n2nc(Cl)c3cc(-c4ccc(F)cc4F)ccc32)cc1F` [Example 243, 5-chloro-4-(3-chloro-5-(2,4-difluorophenyl)-1H-indazol-1-yl)-2-fluoro-N-(methylsulfonyl)benzamide], the IC50 came to 175 nM.

Take `CS(=O)(=O)NC(=O)c1cc(Cl)c(-n2nc(Cl)c3cc(-c4cccnc4F)ccc32)cc1F` [Example 244, 5-chloro-4-(3-chloro-5-(2-fluoropyridin-3-yl)-1H-indazol-1-yl)-2-fluoro-N-(methylsulfonyl)benzamide]: the IC50 was 2320 nM.

Regarding `CS(=O)(=O)NC(=O)c1cc(Cl)c(-n2nc(Cl)c3cc(-c4ccc(F)nc4)ccc32)cc1F` [Example 245, 5-chloro-4-(3-chloro-5-(6-fluoropyridin-3-yl)-1H-indazol-1-yl)-2-fluoro-N-(methylsulfonyl)benzamide], the IC50 came to 1670 nM.

In the case of `CS(=O)(=O)NC(=O)c1cc(Cl)c(-n2nc(Cl)c3cc(-c4ccc(F)nc4F)ccc32)cc1F` [Example 246, 5-chloro-4-(3-chloro-5-(2,6-difluoropyridin-3-yl)-1H-indazol-1-yl)-2-fluoro-N-(methylsulfonyl)benzamide], the IC50 came to 1050 nM.

For `CS(=O)(=O)NC(=O)c1cc(Cl)c(-n2nc(Cl)c3cc(-c4ccc(Cl)cc4F)ccc32)cc1F` [Example 247, 5-chloro-4-(3-chloro-5-(4-chloro-2-fluorophenyl)-1H-indazol-1-yl)-2-fluoro-N-(methylsulfonyl)benzamide], the IC50 stood at 304 nM.

Consider `COc1ccc(-c2ccc3c(c2)c(Cl)nn3-c2cc(F)c(C(=O)NS(C)(=O)=O)cc2Cl)cc1` [Example 248, 5-chloro-4-(3-chloro-5-(4-methoxyphenyl)-1H-indazol-1-yl)-2-fluoro-N-(methylsulfonyl)benzamide], for which the IC50 was 88 nM.

For `CS(=O)(=O)NC(=O)c1cc(Cl)c(-n2nc(Cl)c3cc(-c4cccc(C(F)(F)F)c4)ccc32)cc1F` [Example 249, 5-chloro-4-(3-chloro-5-(3-(trifluoromethyl)phenyl)-1H-indazol-1-yl)-2-fluoro-N-(methylsulfonyl)benzamide], the IC50 was determined as 74 nM.

`CS(=O)(=O)NC(=O)c1cc(Cl)c(-n2nc(Cl)c3cc(-c4ccccc4C(F)(F)F)ccc32)cc1F` [Example 250, 5-chloro-4-(3-chloro-5-(2-(trifluoromethyl)phenyl)-1H-indazol-1-yl)-2-fluoro-N-(methylsulfonyl)benzamide]: the half-maximal inhibitory concentration (IC50) came to 67 nM.

As to `CS(=O)(=O)NC(=O)c1cc(Cl)c(-n2nc(Cl)c3cc(-c4ccc(C(F)(F)F)cc4)ccc32)cc1F` [Example 251, 5-chloro-4-(3-chloro-5-(4-(trifluoromethyl)phenyl)-1H-indazol-1-yl)-2-fluoro-N-(methylsulfonyl)benzamide], the IC50 is 113 nM.

As for `CS(=O)(=O)NC(=O)c1cc(Cl)c(-n2nc(Cl)c3cc(-c4ccccc4Cl)ccc32)cc1F` [Example 252, 5-chloro-4-(3-chloro-5-(2-chlorophenyl)-1H-indazol-1-yl)-2-fluoro-N-(methylsulfonyl)benzamide], the half-inhibitory concentration (IC50) is 240 nM.

For the compound `Cc1cc(Cl)ccc1-c1ccc2c(c1)c(Cl)nn2-c1cc(F)c(C(=O)NS(C)(=O)=O)cc1Cl` [Example 253, 5-chloro-4-(3-chloro-5-(4-chloro-2-methylphenyl)-1H-indazol-1-yl)-2-fluoro-N-(methylsulfonyl)benzamide], the half-inhibitory concentration (IC50) was 480 nM.

Take `CS(=O)(=O)NC(=O)c1cc(Cl)c(-n2nc(Cl)c3cc(-c4cc(Cl)ccc4F)ccc32)cc1F` [Example 254, 5-chloro-4-(3-chloro-5-(5-chloro-2-fluorophenyl)-1H-indazol-1-yl)-2-fluoro-N-(methylsulfonyl)benzamide]: the IC50 amounted to 420 nM.

As for `CS(=O)(=O)NC(=O)c1cc(Cl)c(-n2nc(Cl)c3cc(-c4ccc(Cl)cc4)ccc32)cc1F` [Example 255, 5-chloro-4-(3-chloro-5-(4-chlorophenyl)-1H-indazol-1-yl)-2-fluoro-N-(methylsulfonyl)benzamide], the concentration for half-maximal inhibition (IC50) was 830 nM.

Turning to `Cn1nccc1-c1ccc2c(c1)c(Cl)nn2-c1cc(F)c(C(=O)NS(C)(=O)=O)cc1Cl` [Example 256, 5-chloro-4-(3-chloro-5-(1-methyl-1H-pyrazol-5-yl)-1H-indazol-1-yl)-2-fluoro-N-(methylsulfonyl)benzamide], the IC50 stood at 3990 nM.

Turning to `CS(=O)(=O)NC(=O)c1cc(Cl)c(-n2cc(Cl)c3cc(-c4ccc(F)cc4)cnc32)cc1F` [Example 257, 5-chloro-4-(3-chloro-5-(4-fluorophenyl)-1H-pyrrolo[2,3-b]pyridin-1-yl)-2-fluoro-N-(methylsulfonyl)benzamide], the IC50 was 360 nM.

Take `COc1ccc(-c2cnc3c(c2)c(Cl)cn3-c2cc(F)c(C(=O)NS(C)(=O)=O)cc2Cl)cc1` [Example 260, 5-chloro-4-(3-chloro-5-(4-methoxyphenyl)-1H-pyrrolo[2,3-b]pyridin-1-yl)-2-fluoro-N-(methylsulfonyl)benzamide]: the IC50 was found to be 470 nM.

As for `CS(=O)(=O)NC(=O)c1cc(Cl)c(-n2cc(Cl)c3cc(-c4ccc(C(F)(F)F)cc4)cnc32)cc1F` [Example 261, 5-chloro-4-(3-chloro-5-(4-(trifluoromethyl)phenyl)-1H-pyrrolo[2,3-b]pyridin-1-yl)-2-fluoro-N-(methylsulfonyl)benzamide], the IC50 came to 180 nM.

With `CS(=O)(=O)NC(=O)c1cc(Cl)c(-n2cc(Cl)c3cc(-c4cccc(F)c4)cnc32)cc1F` [Example 262, 5-chloro-4-(3-chloro-5-(3-fluorophenyl)-1H-pyrrolo[2,3-b]pyridin-1-yl)-2-fluoro-N-(methylsulfonyl)benzamide], the IC50 is 210 nM.

On to `CS(=O)(=O)NC(=O)c1cc(Cl)c(-n2nc(Cl)c3ccc(-c4ccccc4)cc32)cc1F` [Example 263, 5-chloro-4-(3-chloro-6-phenyl-1H-indazol-1-yl)-2-fluoro-N-(methylsulfonyl)benzamide], for which the IC50 was over 10000 nM.

For `CS(=O)(=O)NC(=O)c1cc(Cl)c(-n2nc(-c3ccccc3)c3cc(-c4ccccc4)ccc32)cc1F` [Example 264, 5-chloro-4-(3,5-diphenyl-1H-indazol-1-yl)-2-fluoro-N-(methylsulfonyl)benzamide], the IC50 is 164 nM.

Take `CS(=O)(=O)NC(=O)c1cc(Cl)c(-n2cc(C(=O)O)c3cc(Cl)ccc32)cc1F` [Example 265, 5-chloro-1-(2-chloro-5-fluoro-4-((methylsulfonyl)carbamoyl)phenyl)-1H-indole-3-carboxylic acid]: the IC50 lay within 300 to 1000 nM.

In the case of `CS(=O)(=O)NC(=O)c1cc(Cl)c(-n2cc(Cl)c3cc(Cl)ccc32)cc1F` [Example 266, 5-chloro-4-(3,5-dichloro-1H-indol-1-yl)-2-fluoro-N-(methylsulfonyl)benzamide], the IC50 is 133 nM.

With `CS(=O)(=O)NC(=O)c1cc(Cl)c(-n2cc(Cl)c3c(Cl)c(O)ccc32)cc1F` [Example 267, 5-chloro-4-(3,4-dichloro-5-hydroxy-1H-indol-1-yl)-2-fluoro-N-(methylsulfonyl)benzamide], the IC50 is over 10000 nM.

These data come from patent publication US10590078B2, “Sodium channel blockers” (Daewoong Pharmaceutical Co., Ltd., priority 2015, dated 2020).
